Earlier results in article PMC10208580 (Science Advances, 2023).

Test system: RyRs
Details: higher concentrations of ryanodine; cited from earlier work
Description: Subconducting states have also been observed in the presence of low concentrations of ryanodine. At higher concentrations, however, addition of ryanodine results in full block ([25]). […] A previous cryo-EM study has resolved density for ryanodine in the pore-forming region, inside the inner vestibule below Gln^4933 ([15]). As this site is >13 Å away from IpCa, ryanodine and IpCa can bind to RyRs simultaneously (fig. S12). Whereas IpCa causes ...

For ryanodine, the “Effect on channel conductance at higher concentrations” value is listed as “full block”.
